This is an account of results in US20250382344A1, “Soluble GLP1/GIP/NPY2 Receptor Triple Agonists” (Boehringer Ingelheim International GmH, priority 2024, published 2025).

What all share (assay type): cell-based
For experiment [1], the target named is T1, hGIPR (Homo sapiens, UniProt P48546).
T1 construct: expressed in transfected cells; host or cells: CHO CRE-luciferase reporter cells
T1 sequence (P48546 22-466): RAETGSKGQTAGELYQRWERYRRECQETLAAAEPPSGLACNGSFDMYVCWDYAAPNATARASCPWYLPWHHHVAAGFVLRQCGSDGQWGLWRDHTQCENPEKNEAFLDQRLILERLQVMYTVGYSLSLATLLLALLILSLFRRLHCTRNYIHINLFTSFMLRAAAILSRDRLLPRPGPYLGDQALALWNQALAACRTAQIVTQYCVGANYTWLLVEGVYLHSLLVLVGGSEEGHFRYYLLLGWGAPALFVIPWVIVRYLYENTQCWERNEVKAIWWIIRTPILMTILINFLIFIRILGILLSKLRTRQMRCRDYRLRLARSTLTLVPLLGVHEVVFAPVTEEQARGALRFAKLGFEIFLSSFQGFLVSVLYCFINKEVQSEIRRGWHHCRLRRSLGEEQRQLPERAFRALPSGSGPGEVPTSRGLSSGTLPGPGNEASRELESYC
Briefly: hGIPR CreLuc assay in 0.5% and 100% plasma (CHO CRE-luciferase reporter cells). In general terms: Reporter assays use an easily measured gene product as a stand-in for the process of interest.

The target in experiment [2] is T2, hGLP1R (Homo sapiens, UniProt P43220).
T2 construct: expressed in transfected cells; host or cells: HEK-293 CRE-luciferase reporter cells
Put plainly: hGLP1R CreLuc assay in 0.5% and 100% plasma (HEK-293 CRE-luciferase reporter cells). The note with it: HEK-293 reporter cells.

For experiment [3], the target named is T3, hNPY2R (Homo sapiens, UniProt P49146).
T3 construct: expressed in transfected cells; host or cells: HEK-293 CRE-luciferase reporter cells
T3 sequence (P49146 1-381): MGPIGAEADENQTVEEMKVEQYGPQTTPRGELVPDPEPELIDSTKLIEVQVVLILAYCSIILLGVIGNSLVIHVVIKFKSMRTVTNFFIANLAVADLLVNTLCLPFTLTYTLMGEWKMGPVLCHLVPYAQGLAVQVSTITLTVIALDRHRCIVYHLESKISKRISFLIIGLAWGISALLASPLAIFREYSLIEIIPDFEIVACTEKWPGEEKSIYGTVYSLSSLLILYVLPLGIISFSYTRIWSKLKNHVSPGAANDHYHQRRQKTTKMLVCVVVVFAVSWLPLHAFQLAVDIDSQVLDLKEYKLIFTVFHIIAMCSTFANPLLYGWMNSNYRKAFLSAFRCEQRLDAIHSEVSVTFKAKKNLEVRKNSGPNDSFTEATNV
Put plainly: hNPY2R CreLuc assay in 0.5% and 100% plasma (HEK-293 CRE-luciferase reporter cells). The following applies: HEK-293 reporter cells.

[4] abbreviates: 0.5% human plasma, read-out: hGIPR 0.5% hP.
Setting [5] is: 100% human plasma, read-out: hGIPR 100% hP.
The mark [6] stands for this setting: 0.5% human plasma, read-out: hGLP1R 0.5% hP.
Setting [7] is: 100% human plasma, read-out: hGLP1R 100% hP.
The mark [8] stands for this setting: 0.5% human plasma, read-out: hNPY2R 0.5% hP.
The mark [9] stands for this setting: 100% human plasma, read-out: hNPY2R 100% hP.

Where two headings read alike, the source gives them in different places. *1 amine or outer side, *2 acyl side, *3 side chain or, on linkers, in order; H or OH if unused. Where a SMILES comes first, the peptide text is derived from it. Side-chain parts run from the residue outwards. [ ]: non-standard residue; d: D form. The star is where a group is joined. Argψ(CH2NH)TyrNH2 = N=C(N)NCCC[C@@H](CN[C@@H](Cc1ccc(O)cc1)C(N)=O)N*; C20 diacid = O=C(O)CCCCCCCCCCCCCCCCCCC(=O)*; C18 diacid = O=C(O)CCCCCCCCCCCCCCCCC(=O)*; γGlu = O=C(O)[C@H](CCC(=O)[*:2])N[*:1]; εLys = N[C@@H](CCCCN[*:1])C(=O)[*:2]; Aib = CC(C)(N)C(=O)O

T2 sequence (P43220 24-463): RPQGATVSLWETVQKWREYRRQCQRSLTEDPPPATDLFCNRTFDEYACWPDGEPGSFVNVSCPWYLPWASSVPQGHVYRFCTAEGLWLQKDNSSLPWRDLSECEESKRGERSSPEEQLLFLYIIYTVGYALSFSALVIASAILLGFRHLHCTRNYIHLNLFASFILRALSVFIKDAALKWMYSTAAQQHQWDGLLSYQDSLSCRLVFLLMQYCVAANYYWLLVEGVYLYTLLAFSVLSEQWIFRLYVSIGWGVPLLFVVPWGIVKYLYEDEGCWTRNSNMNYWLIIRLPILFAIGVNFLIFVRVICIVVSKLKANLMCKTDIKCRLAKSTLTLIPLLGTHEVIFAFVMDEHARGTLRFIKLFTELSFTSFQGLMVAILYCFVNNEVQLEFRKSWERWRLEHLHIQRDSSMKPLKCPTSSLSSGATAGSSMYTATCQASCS

Regarding `CC[C@H](C)[C@H](NC(=O)[C@H](CC(C)C)NC(=O)[C@H](Cc1c[nH]cn1)NC(=O)[C@H](CCCNC(=N)N)NC(=O)[C@@H](NC(=O)[C@H](Cc1ccccc1)NC(=O)[C@H](C)NC(=O)C(C)(C)NC(=O)[C@H](CCC(N)=O)NC(=O)[C@H](C)NC(=O)[C@H](CCC(N)=O)NC(=O)[C@H](CCCCN)NC(=O)[C@H](CC(=O)O)NC(=O)[C@H](CC(C)C)NC(=O)C(C)(C)NC(=O)[C@@H](NC(=O)[C@H](CO)NC(=O)[C@H](Cc1ccc(O)cc1)NC(=O)[C@H](CC(=O)O)NC(=O)[C@H](CO)NC(=O)[C@@H](NC(=O)[C@H](Cc1ccccc1)NC(=O)[C@@H](NC(=O)CNC(=O)[C@H](CCC(=O)O)NC(=O)C(C)(C)NC(=O)[C@@H](N)Cc1ccc(O)cc1)[C@@H](C)O)[C@@H](C)O)[C@@H](C)CC)C(C)C)C(=O)N[C@@H](CC(N)=O)C(=O)N[C@@H](CCCCNC(=O)[C@@H](N)CCCCNC(=O)CC[C@H](NC(=O)CC[C@H](NC(=O)CC[C@H](NC(=O)CC[C@H](NC(=O)CC[C@H](NC(=O)CC[C@H](NC(=O)CC[C@H](NC(=O)CCCCCCCCCCCCCCCCCCC(=O)O)C(=O)O)C(=O)O)C(=O)O)C(=O)O)C(=O)O)C(=O)O)C(=O)O)C(=O)NC(C)(C)C(=O)N[C@H](C(=O)N[C@@H](CCCNC(=N)N)C(=O)N[C@@H](CCC(N)=O)C(=O)N[C@@H](CCCNC(=N)N)CN[C@@H](Cc1ccc(O)cc1)C(N)=O)[C@@H](C)O` [Compound 16, Y-Aib-E-G-T-F-T-S-D-Y-S-I-Aib-L-D-K-Q-A-Q-Aib-A-F-V-R-H-L-I-N-K(1,3)-Aib-T-R-Q-dOR-Y-NH2.C20DA-gGlu-gGlu-gGlu-gGlu-gGlu-gGlu-gGlu-eLys(1,2)] (H-Y[Aib]EGTFTSDYSI[Aib]LDKQAQ[Aib]AFVRHLINK([εLys-γGlu-γGlu-γGlu-γGlu-γGlu-γGlu-γGlu-C20 diacid])[Aib]TRQ-{Argψ(CH2NH)TyrNH2}), the EC50 was 0.5 nM in experiment [1] (setting [4]); 2 nM in experiment [1] (setting [5]); 0.7 nM in experiment [2] (setting [6]); 1.8 nM in experiment [2] (setting [7]); 6.4 nM in experiment [3] (setting [8]).

With `CC[C@H](C)[C@H](NC(=O)[C@H](Cc1ccccc1)NC(=O)[C@H](C)NC(=O)C(C)(C)NC(=O)[C@H](CCC(N)=O)NC(=O)[C@H](C)NC(=O)[C@H](CCC(N)=O)NC(=O)[C@H](CCCCN)NC(=O)[C@H](CC(=O)O)NC(=O)[C@H](CC(C)C)NC(=O)C(C)(C)NC(=O)[C@@H](NC(=O)[C@H](CO)NC(=O)[C@H](Cc1ccc(O)cc1)NC(=O)[C@H](CC(=O)O)NC(=O)[C@H](CO)NC(=O)[C@@H](NC(=O)[C@H](Cc1ccccc1)NC(=O)[C@@H](NC(=O)CNC(=O)[C@H](CCC(=O)O)NC(=O)C(C)(C)NC(=O)[C@@H](N)Cc1ccc(O)cc1)[C@@H](C)O)[C@@H](C)O)[C@@H](C)CC)C(=O)N[C@@H](CCCNC(=N)N)C(=O)N[C@@H](Cc1c[nH]cn1)C(=O)N[C@@H](CC(C)C)C(=O)N[C@H](C(=O)N[C@@H](CC(N)=O)C(=O)N[C@@H](CCCCNC(=O)[C@@H](N)CCCCNC(=O)CC[C@H](NC(=O)CC[C@H](NC(=O)CC[C@H](NC(=O)CC[C@H](NC(=O)CC[C@H](NC(=O)CC[C@H](NC(=O)CCCCCCCCCCCCCCCCCCC(=O)O)C(=O)O)C(=O)O)C(=O)O)C(=O)O)C(=O)O)C(=O)O)C(=O)NC(C)(C)C(=O)N[C@H](C(=O)N[C@@H](CCCNC(=N)N)C(=O)N[C@@H](CCC(N)=O)C(=O)N[C@@H](CCCNC(=N)N)C(=O)N[C@@H](Cc1ccc(O)cc1)C(N)=O)[C@@H](C)O)[C@@H](C)CC` [Compound 81, Y-Aib-E-G-T-F-T-S-D-Y-S-I-Aib-L-D-K-Q-A-Q-Aib-A-F-I-R-H-L-I-N-K(1,3)-Aib-T-R-Q-R-Y-NH2.C20DA-gGlu-gGlu-gGlu-gGlu-gGlu-gGlu-eLys(1,2)], the EC50 came to 0.5 nM in experiment [1] (setting [4]), 0.6 nM in experiment [2] (setting [6]), 3.8 nM in experiment [2] (setting [7]) and 7.2 nM in experiment [3] (setting [8]).

Take `CC[C@H](C)[C@H](NC(=O)[C@H](CC(C)C)NC(=O)[C@H](Cc1c[nH]cn1)NC(=O)[C@H](CCCNC(=N)N)NC(=O)[C@@H](NC(=O)[C@H](Cc1ccccc1)NC(=O)[C@H](C)NC(=O)C(C)(C)NC(=O)[C@H](CCC(N)=O)NC(=O)[C@H](C)NC(=O)[C@H](CCC(N)=O)NC(=O)[C@H](CCCCN)NC(=O)[C@H](CCC(=O)O)NC(=O)[C@H](CC(C)C)NC(=O)C(C)(C)NC(=O)[C@@H](NC(=O)[C@H](CO)NC(=O)[C@H](Cc1ccc(O)cc1)NC(=O)[C@H](CC(=O)O)NC(=O)[C@H](CO)NC(=O)[C@@H](NC(=O)[C@H](Cc1ccccc1)NC(=O)[C@@H](NC(=O)CNC(=O)[C@H](CCC(=O)O)NC(=O)C(C)(C)NC(=O)[C@@H](N)Cc1ccc(O)cc1)[C@@H](C)O)[C@@H](C)O)[C@@H](C)CC)C(C)C)C(=O)N[C@@H](CC(N)=O)C(=O)N[C@@H](CCCCNC(=O)[C@@H](N)CCCCNC(=O)CC[C@H](NC(=O)CC[C@H](NC(=O)CC[C@H](NC(=O)CC[C@H](NC(=O)CC[C@H](NC(=O)CC[C@H](NC(=O)CCCCCCCCCCCCCCCCC(=O)O)C(=O)O)C(=O)O)C(=O)O)C(=O)O)C(=O)O)C(=O)O)C(=O)NC(C)(C)C(=O)N[C@H](C(=O)N[C@@H](CCCNC(=N)N)C(=O)N[C@@H](CCC(N)=O)C(=O)N[C@@H](CCCNC(=N)N)C(=O)N[C@@H](Cc1ccc(F)cc1)C(N)=O)[C@@H](C)O` [Compound 86, Y-Aib-E-G-T-F-T-S-D-Y-S-I-Aib-L-E-K-Q-A-Q-Aib-A-F-V-R-H-L-I-N-K(1,3)-Aib-T-R-Q-R-Phe4F-NH2.C18DA-gGlu-gGlu-gGlu-gGlu-gGlu-gGlu-eLys(1,2)]: the EC50 was 0.3 nM in experiment [1] (setting [4]), 5.9 nM in experiment [1] (setting [5]), 0.8 nM in experiment [2] (setting [6]) and 162 nM in experiment [3] (setting [9]).

As for `CC[C@H](C)[C@H](NC(=O)[C@H](CC(C)C)NC(=O)[C@H](Cc1c[nH]cn1)NC(=O)[C@H](CCCNC(=N)N)NC(=O)[C@@H](NC(=O)[C@H](Cc1ccccc1)NC(=O)[C@H](C)NC(=O)C(C)(C)NC(=O)[C@H](CCC(N)=O)NC(=O)[C@H](C)NC(=O)[C@H](CCC(N)=O)NC(=O)[C@H](CCCCN)NC(=O)[C@H](CCC(=O)O)NC(=O)[C@H](CC(C)C)NC(=O)C(C)(C)NC(=O)[C@@H](NC(=O)[C@H](CO)NC(=O)[C@H](Cc1ccc(O)cc1)NC(=O)[C@H](CC(=O)O)NC(=O)[C@H](CO)NC(=O)[C@@H](NC(=O)[C@H](Cc1ccccc1)NC(=O)[C@@H](NC(=O)CNC(=O)[C@H](CCC(=O)O)NC(=O)C(C)(C)NC(=O)[C@@H](N)Cc1ccc(O)cc1)[C@@H](C)O)[C@@H](C)O)[C@@H](C)CC)C(C)C)C(=O)N[C@@H](CC(N)=O)C(=O)N[C@@H](CCCCNC(=O)CC[C@H](NC(=O)CC[C@H](NC(=O)CC[C@H](NC(=O)CC[C@H](NC(=O)CC[C@H](NC(=O)CCCCCCCCCCCCCCCCC(=O)O)C(=O)O)C(=O)O)C(=O)O)C(=O)O)C(=O)O)C(=O)NC(C)(C)C(=O)N[C@H](C(=O)N[C@@H](CCCNC(=N)N)C(=O)N[C@@H](CCC(N)=O)C(=O)N[C@@H](CCCNC(=N)N)CN[C@@H](Cc1ccc(O)cc1)C(N)=O)[C@@H](C)O` [Compound 96, Y-Aib-E-G-T-F-T-S-D-Y-S-I-Aib-L-E-K-Q-A-Q-Aib-A-F-V-R-H-L-I-N-K(1,3)-Aib-T-R-Q-dOR-Y-NH2.C18DA-gGlu-gGlu-gGlu-gGlu-gGlu(1,2)] (H-Y[Aib]EGTFTSDYSI[Aib]LEKQAQ[Aib]AFVRHLINK([γGlu-γGlu-γGlu-γGlu-γGlu-C18 diacid])[Aib]TRQ-{Argψ(CH2NH)TyrNH2}), the EC50 turned out to be 0.3 nM in experiment [1] (setting [4]); 1.7 nM in experiment [1] (setting [5]); 0.9 nM in experiment [2] (setting [6]); 1.7 nM in experiment [2] (setting [7]); 125 nM in experiment [3] (setting [9]).
